# Test system: SARS-CoV-2
# Assay: microbe, parasite or virus in culture
# Assay type: cell-based
# Conditions: Severe acute respiratory syndrome coronavirus 2, Vero, 48 h, Vero cells; virus yield, 48 h post-infection; read-out: Anti-SARS-COV-2 activity in Vero cells EC50
row,SMILES,EC50 [µM]
1,Nc1cnn([C@@H]2O[C@H](CO)C(O)C2O)c(=O)n1 (stereo partly drawn),< 10
2,COc1cnn([C@@H]2O[C@H](CO)C(O)C2O)c(=O)n1 (stereo partly drawn),< 10
3,Nc1nccc2c1ncn2[C@@H]1O[C@H](CO)C(O)C1O (stereo partly drawn),6
4,OC[C@H]1O[C@@H](n2cnc3c(S)ncnc32)C(O)C1O (stereo partly drawn),11.1
5,CC1(O)C(O)[C@@H](CO)O[C@H]1n1ccc(N)nc1=O (stereo partly drawn),9.2
6,CC1(O)C(O)[C@@H](CO)O[C@H]1n1cc(F)c2c(N)ncnc21 (stereo partly drawn),7.6
7,COc1ncnc2c1c(C(F)(F)F)cn2[C@@H]1O[C@H](CO)C(O)C1(C)O (stereo partly drawn),< 10
8,CC1(F)C[C@@H](CO)O[C@H]1n1ccc(=O)[nH]c1=O (stereo partly drawn),10
9,[N-]=[N+]=NC1C(O)[C@@H](CO)O[C@H]1n1ccc(=O)[nH]c1=O (stereo partly drawn),< 10
10,C#CC1C(O)[C@@H](CO)O[C@H]1n1cc(F)c(=O)[nH]c1=O (stereo partly drawn),< 10
11,[N-]=[N+]=NC1C[C@@H](COC(=O)c2ccccc2)O[C@H]1n1ccc(=O)[nH]c1=O (stereo partly drawn),10
12,O=c1ccn([C@@H]2O[C@H](CO)CC2F)c(=O)[nH]1 (stereo partly drawn),< 10
13,NC1C=CN([C@@H]2O[C@H](CO)CC2(Cl)Cl)C(=O)N1 (stereo partly drawn),< 10
14,Nc1ccn([C@@H]2O[C@@](CO)(COC(F)F)[C@@H](O)[C@H]2F)c(=O)n1,< 10
15,Nc1ccn([C@@H]2O[C@@](CO)(C3CCO3)C(O)C2F)c(=O)n1 (stereo partly drawn),< 10
16,C#C[C@]1(CO)O[C@@H](n2cnc3c(N)ncnc32)C(O)C1O (stereo partly drawn),< 10
17,C#C[C@]1(CO)O[C@@H](N2C=CC(N)NC2=O)[C@H](O)[C@@H]1O (stereo partly drawn),< 10
18,O=c1ccn([C@@H]2C[C@H](CO)C(O)C2O)c(=O)[nH]1 (stereo partly drawn),< 10
19,Nc1nc2c(ncn2[C@@H]2C[C@H](CO)C(O)C2O)c(=O)[nH]1 (stereo partly drawn),< 10
20,Nc1ncnc2c1ccn2[C@@H]1C[C@H](CO)C(O)C1O (stereo partly drawn),< 10
21,Nc1ncnc2c1ncn2[C@@H]1C[C@H](CO)C(O)C1O (stereo partly drawn),< 10
22,CC(C)C(=O)OC[C@@H]1OC[C@H](n2cnc3c(Cl)nc(Cl)nc32)O1,2.3

row,SMILES,EC50 [µM]
1,COc1nc(Cl)nc2c1ncn2[C@H]1CO[C@@H](CO)O1,< 10
2,Nc1nc(N)c2ncn([C@H]3CO[C@@H](CO)O3)c2n1,10
3,Nc1nc(Cl)nc2c1ncn2[C@H]1CO[C@@H](CO)O1,> 10
4,OC[C@@H]1OC[C@H](n2cnc3c(Cl)nc(Cl)nc32)O1,< 10
5,OC[C@@H]1CC[C@H](n2cnc3c(Cl)nc(Cl)nc32)C1,< 10
6,OC[C@@H]1C=C[C@H](n2cnc3c(Cl)nc(Cl)nc32)C1,< 10
7,Nc1ncnc2c([C@H]3O[C@@H](CO)C(O)C3O)cnn12 (stereo partly drawn),< 10
8,Nc1ncnc2c([C@@H]3C[C@H](CO)C(O)C3O)c[nH]c12 (stereo partly drawn),< 10
9,OC[C@H]1C[C@@H](c2c[nH]c3c(O)ncnc23)C(O)C1O (stereo partly drawn),< 10
10,O=c1[nH]c(=O)n([C@H]2C[C@@H](CO)C(O)C2O)cc1F (stereo partly drawn),< 10
11,Nc1nc(O)c2[nH]cc([C@@H]3C[C@H](CO)C(O)C3O)c2n1 (stereo partly drawn),< 10
12,OC[C@@H]1O[C@H](n2nnc3c(O)ncnc32)C(O)C1O (stereo partly drawn),< 10
13,Nc1ncnc2c1cnn2[C@H]1O[C@@H](CO)C(O)C1O (stereo partly drawn),< 10
14,OC[C@@H]1O[C@H](n2ncc3c(S)ncnc32)C(O)C1O (stereo partly drawn),< 10
15,O=c1ccn([C@H]2CC(F)(F)[C@@H](CO)S2)c(=O)[nH]1,< 10
16,CC1(O)C(O)[C@H](n2ccc(NO)nc2=O)S[C@@H]1CO (stereo partly drawn),1.2
17,CC1(O)C(O)[C@H](n2ccc(N)nc2=O)O[C@@H]1CO (stereo partly drawn),0.4
18,O=c1nc(NO)ccn1C1CCC(CO)O1 (stereo not drawn),2.5
19,O=c1ccn([C@H]2CC[C@@H](CO)O2)c(=O)[nH]1,10
20,Nc1ccn([C@H]2CC[C@@H](CO)O2)c(=O)n1,< 10
21,O=c1cnn([C@@H]2O[C@H](CO)C(O)C2O)c(=O)[nH]1 (stereo partly drawn) [drawing 46],0.75
22,C[C@@]1(O)C(O)[C@@H](CO)O[C@H]1n1ncc(=O)[nH]c1=O (stereo partly drawn) [drawing 50],10

# Same assay, conditions: Severe acute respiratory syndrome coronavirus 2, Vero, 48 h, read-out: Anti-SARS-COV-2 activity in Vero cells EC50
row,SMILES,EC50 [µM]
1,CC(C)OC(=O)[C@H](C)N[P@](=O)(OC[C@H]1O[C@@H](n2ncc(=O)[nH]c2=O)C(O)C1O)Oc1ccccc1 (stereo partly drawn),< 10
2,CC(C)OC(=O)[C@H](C)N[P@](=O)(OC[C@H]1O[C@@H](n2ncc(=O)[nH]c2=O)[C@](C)(O)C1O)Oc1ccccc1 (stereo partly drawn),10
3,CC(C)OC(=O)[C@H](C)NP(=O)(OC[C@H]1O[C@@H](n2cnc3c(N)ncnc32)C(C)(O)C1O)Oc1ccccc1 (stereo partly drawn),< 10
4,CC(C)OC(=O)[C@H](C)N[P@@](=O)(OC[C@H]1O[C@@H](n2ccc(=O)[nH]c2=O)C(F)C1O)Oc1ccccc1 (stereo partly drawn),< 10
5,C#C[C@]1(CO[P@@](=O)(N[C@@H](C)C(=O)OC(C)C)Oc2ccccc2)O[C@@H](n2ccc(=O)[nH]c2=O)[C@H](O)[C@@H]1O,< 10
6,CC(C)OC(=O)[C@H](C)NP(=O)(OC[C@H]1C[C@@H](n2cnc3c(N)ncnc32)C(O)C1O)Oc1ccccc1 (stereo partly drawn),< 10
7,Nc1nc2c(ncn2[C@H]2CO[C@@H](CO)O2)c(=O)[nH]1,> 10
8,CCOC(=O)[C@H](C)NP(=O)(OC[C@@H]1OC[C@H](n2cnc3c(OC)nc(N)nc32)O1)Oc1ccccc1 (stereo partly drawn),> 10
9,CC(C)OC(=O)[C@H](C)N[P@](=O)(OC[C@@H]1OC[C@H](n2cnc3c(Cl)nc(Cl)nc32)O1)Oc1ccccc1,> 10
10,CC(C)OC(=O)[C@H](C)NP(=O)(OC[C@@H]1C=C[C@H](n2cnc3c(Cl)nc(Cl)nc32)C1)Oc1ccccc1 (stereo partly drawn),< 10
11,CC(C)OC(=O)[C@H](C)NP(=O)(OC[C@@H]1CC[C@H](n2cnc3c(Cl)nc(Cl)nc32)C1)Oc1ccccc1 (stereo partly drawn),< 10
12,CC(C)OC(=O)[C@H](C)NP(=O)(OC[C@H]1O[C@@H](n2ccc(N)nc2=O)C(O)C1(C)O)Oc1ccccc1 (stereo partly drawn),9.3

# Same assay, conditions: Severe acute respiratory syndrome coronavirus 2, Vero, 48 h, read-out: Anti-SARS-COV-2 activity in Vero cells EC90
row,SMILES,EC90 [µM]
1,CC(C)OC(=O)[C@H](C)NP(=O)(OC[C@H]1O[C@@H](n2ccc(N)nc2=O)C(O)C1(C)O)Oc1ccccc1 (stereo partly drawn),> 10

# Same assay, conditions: Severe acute respiratory syndrome coronavirus 2; Vero cells; virus yield, 48 h post-infection; read-out: Anti-SARS-COV-2 activity in Vero cells EC90
row,SMILES,EC90 [µM]
1,Nc1nccc2c1ncn2[C@@H]1O[C@H](CO)C(O)C1O (stereo partly drawn),15.2
2,OC[C@H]1O[C@@H](n2cnc3c(S)ncnc32)C(O)C1O (stereo partly drawn),23.5
3,CC1(O)C(O)[C@@H](CO)O[C@H]1n1ccc(N)nc1=O (stereo partly drawn),29.6
4,CC1(O)C(O)[C@@H](CO)O[C@H]1n1cc(F)c2c(N)ncnc21 (stereo partly drawn),28.8
5,CC(C)C(=O)OC[C@@H]1OC[C@H](n2cnc3c(Cl)nc(Cl)nc32)O1,6.5
6,CC1(O)C(O)[C@H](n2ccc(NO)nc2=O)S[C@@H]1CO (stereo partly drawn),8.7
7,CC1(O)C(O)[C@H](n2ccc(N)nc2=O)O[C@@H]1CO (stereo partly drawn),3.6
8,O=c1nc(NO)ccn1C1CCC(CO)O1 (stereo not drawn),83.4
9,O=c1cnn([C@@H]2O[C@H](CO)C(O)C2O)c(=O)[nH]1 (stereo partly drawn) [drawing 46],2.5

# Same assay, conditions: Vero cells; virus yield, 48 h post-infection; read-out: Anti-SARS-COV-2 activity in Vero cells EC50
row,SMILES,EC50 [µM]
1,C[C@@]1(O)C(O)[C@@H](CO)O[C@H]1n1ncc(=O)[nH]c1=O (stereo partly drawn) [drawing 58],< 10

# Target: SARS-CoV-2 RdRp complex (nsp12-nsp7-nsp8) (Severe acute respiratory syndrome coronavirus 2, UniProt P0DTD1)
# Assay: not given
# Assay type: biochemical
# Conditions: concentrations of 1, 10 and 100 μM
row,SMILES,inhibition of RNA synthesis by RdRp complex
1,O=c1cnn([C@@H]2O[C@H](CO)C(O)C2O)c(=O)[nH]1 (stereo partly drawn) [drawing 105],not significantly inhibited

# Same assay, conditions: concentrations of 250 and 500 μM
row,SMILES,inhibition of RNA synthesis by RdRp complex
1,O=c1cnn([C@@H]2O[C@H](CO)C(O)C2O)c(=O)[nH]1 (stereo partly drawn) [drawing 105],significant inhibition

# From US20240238323A1, “MODIFIED NUCLEOSIDES AND NUCLEOTIDES ANALOGS AS ANTIVIRAL AGENTS FOR CORONA AND OTHER VIRUSES” (Emory University, priority 2021, published 2024)
